Paper PMC5297413, “C-terminus Methionene Specifically Involved in Binding Corn Odorants to Odorant Binding Protein4 in Macrocentrus cingulum” (Frontiers in Physiology, 2017)
Entries after “also recorded” stand apart in the source; their conditions may differ. Like-named read-outs stand apart in the source and are kept apart here.

What was measured:
McinOBP4-M2 [1] = target: T1, McinOBP4-M2 (Macrocentrus cingulum, UniProt A0A1S6PU99, M141L); assay: Competitive binding assay with 1-NPN as fluorescent reporter, McinOBP4-M2; conditions: compared to wild type and M1
T1 sequence (A0A1S6PU99 23-142 M141L): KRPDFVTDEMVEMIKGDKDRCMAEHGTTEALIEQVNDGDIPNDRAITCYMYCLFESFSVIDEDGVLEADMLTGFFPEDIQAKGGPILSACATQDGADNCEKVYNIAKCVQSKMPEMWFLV

McinOBP4-Wt [2] = target: T2, McinOBP4-Wt (Macrocentrus cingulum, UniProt A0A1S6PU99); assay: Competitive binding assay with 1-NPN as fluorescent reporter, McinOBP4-Wt
T2 sequence (A0A1S6PU99 entry or part of it): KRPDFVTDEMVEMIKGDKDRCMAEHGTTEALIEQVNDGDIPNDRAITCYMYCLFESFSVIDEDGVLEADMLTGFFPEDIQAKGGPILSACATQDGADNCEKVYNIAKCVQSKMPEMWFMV
Method: (§1) One cm light path fluorimeter quartz cuvette was used on a FluoroMax-4 (Horiba Scientific, USA) spectrophotometer at room temperature for fluorescence spectra recording and excitation wavelength of 337 nm was chosen and 300–500 nm for the emission with a 5 nm slit width. Spectra were recorded with 2 μM McinOBP4 in 50 mM Tris-HCl of different pH value, while ligands were added as 1 mM methanol solutions.
The probe was excited at 337 nm and emission spectra were recorded between 300 and 500 nm.
(§2) It was assumed that McinOBP4 was 100% active and the protein-ligand binding was 1:1 ratio at saturation. The obtained data were processed with Graphpad Prism software (Graphpad Software, Inc.) and using a software package SPSS Version 16 (http://www.spss.com). The maximum intensity values of emission were plotted against the 1-NPN concentration for the KD determination, and the values of intensity were used for the evaluation the bound ligands. The curve was linearized using Scatchard Plots to verify the confidence of KD.

McinOBP4-Wt [3] = target: T2, McinOBP4-Wt; assay: Fluorescence binding of 1-NPN to McinOBP4-Wt
Method: as §1
To measure the affinity of the fluorescence ligand N-phenyl-1-naphthylamine (1-NPN) to McinOBP4-wt and mutants, a 2 μM solution of the protein in 50 mM Tris-HCl, pH 7.4, was titrated with aliquots of 1 mM ligand in high-performance liquid chromatography (HPLC) purity grade methanol to final concentrations of 2–20 μM. The probe was excited at 337 nm and emission spectra were recorded between 300 and 500 nm. While the other competitor were measured in competitive binding assays, where 1-NPN using as the fluorescent reporter at 2 μM concentration and each competitor (odorants) over concentration ranges 2–14 μM, depending on the different odorants.
as §2, with “KD. IC50 for other corn odorants were calculated using with Microsoft excel 2010, and the equation, KD = [IC50]/[1+(1–NPN)/K1−NPN] was used for the KD values calculation. In this equation [IC50] stands for the ligand concentration where the ligand quenching the fluorescence intensity of 1-NPN to 50%, [1-NPN] and K1−NPN mean free 1-NPN concentration and McinOBP4/1-NPN complex KD values, respectively (Campanacci et al., [2001]; Ban et al., [2002]).” for “KD.”

McinOBP4-M2 [4] = target: T1, McinOBP4-M2; assay: Fluorescence binding of 1-NPN to mutant McinOBP4-M2 (Met119 replaced by Leu); conditions: McinOBP4-M2, pH 7.4; read-out: Dissociation constant (KD) of 1-NPN
Method: (§3) The C-terminal tail truncated form of the McinOBP4 was obtained by removing the last 8 amino acids and inserting a stop codon after Leu112. The McinOBP4-Wt/pGEM-T Easy construct was used as a template. A pair of primer was designed manually and as listed sense primer 5′- […] -3′ (underlined with BamHI) and antisense primer, 5′- […] -3′ (underlined with HindIII) where 113th position residues used as a stop codon. The mutant M2 (Met119) was prepared along with the pair of primer as sense primer 5′- […] -3′ (under lined with BamHI), and antisense primere 5′- […] -3′ (under lined with HindIII). […]
as §1, with “solutions. […]” for “solutions.”
(§4) It was assumed that McinOBP4 was 100% active and the protein-ligand binding was 1:1 ratio at saturation. […] IC50 for other corn odorants were calculated using with Microsoft excel 2010, and the equation, KD = [IC50]/[1+(1–NPN)/K1−NPN] was used for the KD values calculation. […]

McinOBP4-M1 = target: T3, McinOBP4-M1 (Macrocentrus cingulum, UniProt A0A1S6PU99); assay: Fluorescence binding of 1-NPN to C-terminal truncated mutant McinOBP4-M1
T3 sequence (A0A1S6PU99 23-134): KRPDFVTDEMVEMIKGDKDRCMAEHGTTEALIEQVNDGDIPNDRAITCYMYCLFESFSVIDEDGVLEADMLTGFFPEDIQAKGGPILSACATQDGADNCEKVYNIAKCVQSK
Method: as §3
as §1, with “solutions. […]” for “solutions.”
as §4

[5] = McinOBP4-Wt, pH 7.4, read-out: KD
[6] = recombinant McinOBP4-Wt, pH = 7.4, calculated from IC50, read-out: KD
[7] = recombinant McinOBP4-Wt, pH = 7.4, displacement of 1-NPN, read-out: IC50

| Compound | Kd (McinOBP4-Wt [2]; [6]) [µM] | IC50 (McinOBP4-Wt [2]; [7]) [µM] | IC50 (McinOBP4-Wt [2]) [µM] | Kd (McinOBP4-Wt [2]) [µM] | other results |
| --- | --- | --- | --- | --- | --- |
| CC/C=C/CCOC(C)=O [Trans-3-Hexen-1-ol-Acetate] | 6.99 | 8.98 |  |  | Binding affinity to McinOBP4-M2 compared to wild type and first mutant (McinOBP4-M2 [1]): lower binding affinities; also recorded: much weaker; Kd (McinOBP4-Wt [2]; [5]): 6.99 ± 1.23 µM |
| C=CC(=C)CCC=C(C)C [Myrcene] | 17.9 | 23 |  |  |  |
| Hexenal | 26.9 | 34.6 |  |  |  |
| CCCCCC/C=C/C=O [Trans-2-Nonenal] | 12.8 | 16.5 |  |  |  |
| C=CC(C)(O)CCC=C(C)C (centres unmarked) [Linalool] |  |  | 12.3 | 9.61 ± 0.23 | Binding affinity to McinOBP4-M2 compared to wild type and first mutant (McinOBP4-M2 [1]): lower binding affinities; also recorded: much weaker |
| C=C1CC/C=C(\C)CC[C@@H]2[C@@H]1CC2(C)C (relative stereo) [Trans Caryophelle] | 19.1 | 24.5 |  |  |  |
| C=C(C)[C@H]1CC=C(C)CC1 [Limonene] | 4.12 | 5.29 |  |  | Binding affinity to McinOBP4-M2 compared to wild type and first mutant (McinOBP4-M2 [1]): lower binding affinities; also recorded: much weaker; Kd (McinOBP4-Wt [2]; [5]): 4.12 ± 0.7 µM |
| C=CC(O)CC (centres unmarked) [1-Penten-3-ol] | 19.8 | 25.4 |  |  |  |
| CCCCCCCCC=O [Nonanal] | 12.5 | 16.1 |  |  |  |
| CCCCC(C)CC(C)C (centres unmarked) [2,4 Dimethyl Octane] | 36.6 | 47 |  |  |  |
| CC(=O)/C=C/C1=C(C)CCCC1(C)C [β-Ionone] |  |  | 15.1 | 11.8 | Binding affinity to McinOBP4-M2 compared to wild type and first mutant (McinOBP4-M2 [1]): lower binding affinities; also recorded: much weaker |
| CCCCCCC=O [Heptanal] | 13 | 16.8 |  |  |  |
| C=C/C(C)=C/C/C=C(\C)CCC=C(C)C [Farnsene] | 21.3 | 27.4 |  |  |  |
| CC(=O)/C=C/C1C(C)=CCCC1(C)C (stereo not drawn) [α-Ionone] |  |  | 24.1 | 18.7 |  |
| CC/C=C\CCO [Cis-3-Hexen-1-ol] |  |  | 19.9 | 15.5 |  |
| CCC/C=C/CO [Trans-2-Hexen-1-ol] |  |  | 19.8 | 15.4 |  |
| CCC/C=C/C=O [Trans-2-Hexen-1-al] |  |  | 16.4 | 12.8 |  |
| CCCCC/C=C/C=O [Trans-2-Octenal] | 11.9 | 15.3 |  |  | Binding affinity to McinOBP4-M2 compared to wild type and first mutant (McinOBP4-M2 [1]; listed as trans-2-octanal): lower binding affinities; also recorded: much weaker; Kd (McinOBP4-Wt [2]; [5]): 11.8 ± 0.57 µM |
| CC1=CCC2CC1C2(C)C (stereo not drawn) [α-Pinene] |  |  | 34.2 | 26.6 |  |
| C=C1CCC2CC1C2(C)C (stereo not drawn) [β-Pinene] |  |  | 18.8 | 14.7 |  |
| c1ccc(Nc2cccc3ccccc23)cc1 [1-NPN, N-phenyl-1-naphthylamine] |  |  |  |  | Affinity of 1-NPN in acidic condition (McinOBP4-Wt [3]; acidic condition (pH 4.4)): did not observe significant loss of binding activity; Affinity of 1-NPN in basic condition (McinOBP4-Wt [3]; basic condition): increase in basic condition; also recorded: increase in affinity; Kd (McinOBP4-Wt [3]; pH 7.4, read-out: Dissociation constant (KD) of 1-NPN): 5.69 ± 0.83 µM; Kd (McinOBP4-M2 [4]): 8.85 ± 0.63 µM; Affinity of 1-NPN in basic condition (McinOBP4-M1; McinOBP4-M1, basic condition): increase in basic condition; also recorded: increase in affinity; Kd (McinOBP4-M1; McinOBP4-M1, pH 7.4, read-out: Dissociation constant (KD) of 1-NPN): 6.99 ± 0.59 µM |
| CCCCCc1ccco1 [2-Pentylfuran] | 15.7 | 20.1 |  |  |  |
